The target in test [1] is T1, B. thetaiotaomicron VPI-5482 Kdn-9-P phosphatase (Bacteroides thetaiotaomicron, UniProt Q8A712).
T1 construct: gene BT_1713
In words: […] NMR coupled assay, Kdn-9-P generated in situ by P. parvum Kdn-9-P synthetase. Type of test: biochemical. Particulars: coupled with Kdn-9-P synthetase, 10 mM PEP, 8 mM Man-6-P, 2 mM MgCl2, 50 mM HEPES pD 7.5, 1 h.

Test [2] deals with T2, Kdn-9-P synthetase (CAMPEP_0191217894).
T2 construct: no truncation stated
In words: BioMol Green colorimetric phosphate-release assay, Michaelis-Menten. The class given is biochemical, Prymnesium parvum. Particulars: 50 mM HEPES pH 7.5, 2 mM MgCl2, 25 °C.

By Km is commonly meant the substrate concentration at which the rate is half of its maximum.

Like-named read-outs stand apart in the source and are kept apart here.

T1 sequence (Q8A712 whole entry, change not shown): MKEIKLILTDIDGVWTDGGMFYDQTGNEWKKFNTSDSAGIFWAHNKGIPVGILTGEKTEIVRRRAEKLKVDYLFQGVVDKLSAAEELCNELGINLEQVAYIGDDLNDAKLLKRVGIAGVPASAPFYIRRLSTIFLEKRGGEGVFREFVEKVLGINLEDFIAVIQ

As for `O=C(O)C1(O)C[C@H](O)[C@@H](O)[C@H]([C@H](O)[C@H](O)COP(=O)(O)O)O1` (stereo partly drawn) [Kdn-9-P], in test [1], the “31P NMR coupled assay, Kdn-9-P generated in situ by P. parvum Kdn-9-P synthetase” value is on record as “is accepted by B. thetaiotaomicron VPI-5482 Kdn-9-P phosphatase”.
As for `O=P(O)(O)OC[C@H]1OC(O)[C@@H](O)[C@@H](O)[C@@H]1O` (stereo partly drawn) [Man-6-P], the Km in test [2] (100 μM PEP, read-out: (Man-6-P)Km) stood at 63.6 ± 10.5 µM.
For the molecule `C=C(OP(=O)(O)O)C(=O)O` [PEP], the Km in test [2] (100 μM Man-6-P, read-out: (PEP)Km) was 18.3 ± 1.8 µM.

The record behind these values is PMC6200933, “Identification of a Kdn biosynthesis pathway in the haptophyte Prymnesium parvum suggests widespread sialic acid biosynthesis among microalgae” (The Journal of Biological Chemistry, 2018).
